# Measurements published in patent publication US20100267561A1, “HERBICIDAL PYRIDAZINONE DERIVATIVES” (priority 2007, published 2010).
# Experiments:
# Assay type in all cases: in vivo
# [1] = test system: winter wheat (Triticum aestivum); assay: Test C pre-/postemergence plant response
# Method in brief: (§1)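 Plant response was judged by eye against untreated controls following 15 to 25 days in a controlled growth environment, using 0 for no effect and 100 for complete control. Treatments were made both preemergence and postemergence, the latter on plants of 1- to 4-leaf stage.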
# wild oat (Avena fatua) = assay: Test C pre-/postemergence plant response
# Method in brief: as §1
# [2] = test system: annual bluegrass (Poa annua); assay: Test C pre-/postemergence plant response
# Method in brief: as §1
# [3] = test system: canarygrass (Phalaris minor); assay: Test C pre-/postemergence plant response; conditions: Preemergence
# Method in brief: as §1
# [4] = test system: Italian ryegrass (Lolium multiflorum); assay: Test C pre-/postemergence plant response
# Method in brief: as §1
# [5] = test system: green foxtail (Setaria viridis); assay: Test C pre-/postemergence plant response
# Method in brief: as §1
# [6] = test system: spring barley (Hordeum vulgare); assay: Test C pre-/postemergence plant response
# Method in brief: as §1
# [7] = test system: blackgrass (Alopecurus myosuroides); assay: Test C pre-/postemergence plant response
# Method in brief: as §1
# [8] = test system: downy bromegrass (Bromus tectorum); assay: Test C pre-/postemergence plant response
# Method in brief: as §1
# [9] = test system: pigweed (Amaranthus retroflexus); assay: Test C pre-/postemergence plant response
# Method in brief: as §1
# [10] = test system: wild mustard (Sinapis arvensis); assay: Test C pre-/postemergence plant response
# Method in brief: as §1
# [11] = test system: woolly cupgrass (Eriochloa villosa); assay: Test B pre-/postemergence plant response; conditions: for Cupgrass, Woolly plant response rating: 8 g ai/ha
# Method in brief: (§2)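 Seeds were sown and sprayed preemergence, while plants at 2 to 18 cm (1- to 4-leaf stage) got postemergence sprays. Compounds were formulated in a non-phytotoxic solvent mixture with surfactant. After 13 to 15 days in a greenhouse, injury was rated visually against untreated controls, 0 (no effect) to 100 (complete control).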
# [12] = test system: large crabgrass (Digitaria sanguinalis); assay: Test B pre-/postemergence plant response; conditions: for Crabgrass, Large plant response rating: 8 g ai/ha
# Method in brief: as §2
# [13] = Postemergence, 8 g ai/ha, scale 0 to 100, 0 no effect, 100 complete control
# [14] = Postemergence, 16 g ai/ha, scale 0 to 100, 0 no effect, 100 complete control
# [15] = Postemergence, 31 g ai/ha, scale 0 to 100, 0 no effect, 100 complete control
# [16] = Postemergence, 62 g ai/ha, scale 0 to 100, 0 no effect, 100 complete control
# [17] = Preemergence, 8 g ai/ha, scale 0 to 100 (0 no effect, 100 complete control)
# [18] = Preemergence, 16 g ai/ha, scale 0 to 100 (0 no effect, 100 complete control)
# [19] = Preemergence, 31 g ai/ha, scale 0 to 100 (0 no effect, 100 complete control)
# [20] = Preemergence, 62 g ai/ha, scale 0 to 100, 0 no effect, 100 complete control
# [21] = Postemergence, 16 g ai/ha, scale 0 to 100
# [22] = Postemergence, 62 g ai/ha, scale 0 to 100
# [23] = Preemergence, 31 g ai/ha, 0 to 100 scale, 0 no effect, 100 complete control
# [24] = Preemergence, 62 g ai/ha, scale 0 to 100
smiles,measurement,setting,value
CCc1cc(-c2ccc(C(F)(F)F)cc2)nn1-c1c(OS(C)(=O)=O)cnn(C)c1=O [Compound 19],"Plant response rating, Wheat, Winter",[1]; [13],20
same,"Plant response rating, Wheat, Winter",[1]; [14],80
same,"Plant response rating, Wheat, Winter",[1]; [15],90
same,"Plant response rating, Wheat, Winter",[1]; [16],100
same,"Plant response rating, Wheat, Winter",[1]; [17],10
same,"Plant response rating, Wheat, Winter",[1]; [18],50
same,"Plant response rating, Wheat, Winter",[1]; [19],60
same,"Plant response rating, Wheat, Winter",[1]; [20],90
same,"Plant response rating, Oat, Wild",wild oat (Avena fatua); [13],100
same,"Plant response rating, Oat, Wild",wild oat (Avena fatua); [14],100
same,"Plant response rating, Oat, Wild",wild oat (Avena fatua); [15],100
same,"Plant response rating, Oat, Wild",wild oat (Avena fatua); [16],100
same,"Plant response rating, Oat, Wild",wild oat (Avena fatua); [17],65
same,"Plant response rating, Oat, Wild",wild oat (Avena fatua); [18],65
same,"Plant response rating, Oat, Wild",wild oat (Avena fatua); [19],80
same,"Plant response rating, Oat, Wild",wild oat (Avena fatua); [20],95
same,"Plant response rating, Bluegrass",[2]; [13],0
same,"Plant response rating, Bluegrass",[2]; [14],0
same,"Plant response rating, Bluegrass",[2]; [15],25
same,"Plant response rating, Bluegrass",[2]; [16],35
same,"Plant response rating, Bluegrass",[2]; [18],0
same,"Plant response rating, Canarygrass","[3]; 8 g ai/ha, scale 0 to 100 (0 no effect, 100 complete control)",65
same,"Plant response rating, Canarygrass","[3]; 16 g ai/ha, scale 0 to 100 (0 no effect, 100 complete control)",90
same,"Plant response rating, Canarygrass","[3]; 31 g ai/ha, scale 0 to 100 (0 no effect, 100 complete control)",98
same,"Plant response rating, Canarygrass","[3]; 62 g ai/ha, scale 0 to 100, 0 no effect, 100 complete control",100
same,"Plant response rating, Ryegrass, Italian",[4]; [13],60
same,"Plant response rating, Ryegrass, Italian",[4]; [14],100
same,"Plant response rating, Ryegrass, Italian",[4]; [15],100
same,"Plant response rating, Ryegrass, Italian",[4]; [16],100
same,"Plant response rating, Ryegrass, Italian",[4]; [17],80
same,"Plant response rating, Ryegrass, Italian",[4]; [18],100
same,"Plant response rating, Ryegrass, Italian",[4]; [19],100
same,"Plant response rating, Ryegrass, Italian",[4]; [20],100
same,"Plant response rating, Foxtail, Green",[5]; [13],95
same,"Plant response rating, Foxtail, Green",[5]; [14],100
same,"Plant response rating, Foxtail, Green",[5]; [15],100
same,"Plant response rating, Foxtail, Green",[5]; [16],100
same,"Plant response rating, Foxtail, Green",[5]; [17],20
same,"Plant response rating, Foxtail, Green",[5]; [18],100
same,"Plant response rating, Foxtail, Green",[5]; [19],100
same,"Plant response rating, Foxtail, Green",[5]; [20],100
same,"Plant response rating, Barley, Spring",[6]; [13],20
same,"Plant response rating, Barley, Spring",[6]; [14],90
same,"Plant response rating, Barley, Spring",[6]; [15],100
same,"Plant response rating, Barley, Spring",[6]; [16],100
same,"Plant response rating, Barley, Spring",[6]; [17],50
same,"Plant response rating, Barley, Spring",[6]; [18],65
same,"Plant response rating, Barley, Spring",[6]; [19],65
same,"Plant response rating, Barley, Spring",[6]; [20],80
same,"Plant response rating, Blackgrass",[7]; [13],75
same,"Plant response rating, Blackgrass",[7]; [14],100
same,"Plant response rating, Blackgrass",[7]; [15],100
same,"Plant response rating, Blackgrass",[7]; [16],100
same,"Plant response rating, Blackgrass",[7]; [17],80
same,"Plant response rating, Blackgrass",[7]; [18],100
same,"Plant response rating, Blackgrass",[7]; [19],100
same,"Plant response rating, Blackgrass",[7]; [20],100
same,"Plant response rating, Bromegrass, Downy",[8]; [13],40
same,"Plant response rating, Bromegrass, Downy",[8]; [14],65
same,"Plant response rating, Bromegrass, Downy",[8]; [15],98
same,"Plant response rating, Bromegrass, Downy",[8]; [16],100
same,"Plant response rating, Bromegrass, Downy",[8]; [17],30
same,"Plant response rating, Bromegrass, Downy",[8]; [18],65
same,"Plant response rating, Bromegrass, Downy",[8]; [19],75
same,"Plant response rating, Bromegrass, Downy",[8]; [20],95
same,"Plant response rating, Pigweed",[9]; [13],0
same,"Plant response rating, Pigweed",[9]; [14],0
same,"Plant response rating, Pigweed",[9]; [15],0
same,"Plant response rating, Pigweed",[9]; [16],0
same,"Plant response rating, Pigweed",[9]; [17],0
same,"Plant response rating, Pigweed",[9]; [18],30
same,"Plant response rating, Pigweed",[9]; [19],50
same,"Plant response rating, Pigweed",[9]; [20],75
same,"Plant response rating, Mustard, Wild",[10]; [13],0
same,"Plant response rating, Mustard, Wild",[10]; [14],20
same,"Plant response rating, Mustard, Wild",[10]; [15],20
same,"Plant response rating, Mustard, Wild",[10]; [16],20
same,"Plant response rating, Mustard, Wild",[10]; [17],0
same,"Plant response rating, Mustard, Wild",[10]; [18],0
same,"Plant response rating, Mustard, Wild",[10]; [19],0
same,"Plant response rating, Mustard, Wild",[10]; [20],0
same,"Cupgrass, Woolly plant response rating","[11]; postemergence, 0-100 scale",90
same,"Plant response rating, Cupgrass, Woolly",[11]; [21],90
same,"Plant response rating, Cupgrass, Woolly",[11]; [15],100
same,"Plant response rating, Cupgrass, Woolly",[11]; [22],100
same,"Plant response rating, Cupgrass, Woolly",[11]; [18],85
same,"Plant response rating, Cupgrass, Woolly",[11]; [23],98
same,"Plant response rating, Cupgrass, Woolly",[11]; [24],100
same,"Cupgrass, Woolly plant response rating","[11]; Preemergence, scale 0 to 100",50
same,"Crabgrass, Large plant response rating","[12]; postemergence, 0-100 scale",80
same,"Plant response rating, Crabgrass, Large",[12]; [21],85
same,"Plant response rating, Crabgrass, Large",[12]; [15],95
same,"Plant response rating, Crabgrass, Large",[12]; [22],100
same,"Plant response rating, Crabgrass, Large",[12]; [18],100
same,"Plant response rating, Crabgrass, Large",[12]; [23],100
same,"Plant response rating, Crabgrass, Large",[12]; [24],100
same,"Crabgrass, Large plant response rating","[12]; Preemergence, scale 0 to 100",50
